pKd: −log10 of the molar value. Like-named read-outs stand apart in the source and are kept apart here. *1 amine or outer side, *2 acyl side, *3 side chain or, on linkers, in order; H or OH if unused. Where a SMILES comes first, the peptide text is derived from it. Bridges are numbered along the chain shown (N, C = ends). [ ]: non-standard residue; d: D form. X1 = O=C([C@@H]1CCN=C2C(N[*:1])=Cc3cc(O)c(O)cc3N21)[*:2]; Orn(N5-OH,N5-Ac) = CC(=O)N(O)CCC[C@H](N)C(=O)O; X2 = O=CN(O)CCC[C@H](N[*:1])C(=O)[*:2]; Suc = O=C(CCC(=O)[*:2])[*:1]
Key:
PaeFpvA = target: T1, PaeFpvA (Pseudomonas aeruginosa, UniProt P48632, T660C); assay: Fluorescence quenching binding to PaeFpvA-FM sensor; conditions: secondary ligands
T1 construct: expressed in transfected cells; host or cells: E. coli OKN3/OKN13/OKN359/OKN1359 carrying a pITS23 derivative
Protocol: (§1) Fluorescence modifications. For modifications with maleimide fluorophores, we inoculated E. coli strains OKN3, OKN13, OKN359 or OKN1359, harboring plasmids that encoded a Cys mutant LGP, from frozen stocks into LB, grew them overnight and sub-cultured at 1% into iron-deficient MOPS minimal media, with shaking (200 rpm) at 37° C. for 10-12 h, until late exponential phase. After collecting the cells by centrifugation at 7500×g for 15 min, and washing with 50 mM NaHPO4, pH 6.7, we labeled the Cys-mutant LGP with 5 μM FM in 50 mM NaHPO4, pH 6.7 for 15 min at 37° C. FM. We terminated the labeling reactions with 100 μM β-mercaptoethanol. […] After electrophoresis, we first visualized the fluorescence labeling on a Typhoon 8600 Biomolecular Scanner (GE/Amersham), and then stained the gels with Coomassie blue R (153).
(§2) Fluorescence spectroscopic binding determinations. We observed fluorophore-labeled cells in an SLM AMINCO 8100 fluorescence spectrometer, upgraded with an OLIS operating system and software (OLIS SpectralWorks, OLIS Inc., Bogart, GA), to control its shutters, polarizers and data collection. We also utilized an OLIS Clarity fluorescence spectrometer for fluorescence assays. […] We performed each measurement in triplicate and calculated the mean value of F/F0 at each ligand concentration. […]

KpnFepA2380 = assay: Fluorescence quenching binding to KpnFepA2380-FM sensor; parameters: species or system Klebsiella pneumoniae; conditions: ferric complexes; Cys residue T255C, FM-labeled; NB = no binding; read-out: Affinity (KD) of sensor KpnFepA 2380
Protocol: as §1, §2

CRE/ESKAPE pathogens = assay: Decoy sensor measurements of metal complex uptake by bacteria; assay type: cell-based; conditions: for TonB-dependent uptake by test strains: decoy sensors in TonB-deficient E. coli, 37° C., strains grown in iron-deficient MOPS
Text: Fluorescence spectroscopic uptake measurements. We employed FD sensors to monitor TonB-dependent uptake of various siderophores by bacterial pathogens. In the fluorescence spectroscopic uptake studies E. coli OKN13 (ΔtonB, ΔfepA) or OKN1359 (ΔtonB, Δfiu, ΔfepA, Δcir) were host strains for pITS23 derivatives carrying single Cys mutants of an LGP of interest. The FLGP were decoy sensors that monitored ferric siderophore uptake by test strains. For each assay we used 10^7 sensor cells (e.g., OKN13/pFepA-FM (53)) in a 2 mL quartz cuvette containing PBS+0.2% glucose at 37° C. After recording fluorescence intensity for 100 seconds, we added an iron complex (e.g., FeEnt) at a final concentration of ˜10 nM. After incubating the sample for 100 seconds, during which time fluorescence was quenched (e.g., ˜60% quenching for EcoFepA_A698C-FM), we added 0.5-2×10^7 cells of the test strain (E. coli MG1655, K. pneumoniae Kp52.145, A. baumannii 17978, P. aeruginosa PA01, E. cloacae) and monitored the time-course of fluorescence emissions at 520 nm for 15-40 minutes, with stirring.

EcoFhuA = EcoFhuA (Escherichia coli, UniProt P06971); assay: Fluorescence quenching binding to EcoFhuA-FM sensor; conditions: read-out: Affinity (KD) of sensor EcoFhuA, apo siderophore; apo (parenthetic value); D396C
Sequence of EcoFhuA (P06971 34-747): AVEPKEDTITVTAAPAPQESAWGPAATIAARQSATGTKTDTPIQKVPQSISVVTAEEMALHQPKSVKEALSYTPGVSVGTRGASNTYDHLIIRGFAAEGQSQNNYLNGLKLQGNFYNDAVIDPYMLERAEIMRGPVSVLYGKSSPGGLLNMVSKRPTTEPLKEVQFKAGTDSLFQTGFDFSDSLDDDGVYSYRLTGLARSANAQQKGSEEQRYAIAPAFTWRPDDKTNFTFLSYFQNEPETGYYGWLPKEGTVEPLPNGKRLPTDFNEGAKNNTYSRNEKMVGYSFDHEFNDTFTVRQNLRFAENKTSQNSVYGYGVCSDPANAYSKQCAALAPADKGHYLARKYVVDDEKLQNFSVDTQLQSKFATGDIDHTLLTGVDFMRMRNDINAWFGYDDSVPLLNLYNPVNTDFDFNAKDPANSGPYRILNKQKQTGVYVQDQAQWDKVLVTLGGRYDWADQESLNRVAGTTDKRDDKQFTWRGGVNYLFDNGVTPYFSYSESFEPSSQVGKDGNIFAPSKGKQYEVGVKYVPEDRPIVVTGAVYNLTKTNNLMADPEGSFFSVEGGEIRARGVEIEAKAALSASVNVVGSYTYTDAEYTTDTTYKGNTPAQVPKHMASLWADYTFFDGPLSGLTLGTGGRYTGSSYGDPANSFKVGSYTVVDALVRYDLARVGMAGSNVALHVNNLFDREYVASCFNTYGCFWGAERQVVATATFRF
Protocol: (§3) Fluorescence modifications. For modifications with maleimide fluorophores, we inoculated E. coli strains OKN3, OKN13, OKN359 or OKN1359, harboring plasmids that encoded a Cys mutant LGP, from frozen stocks into LB, grew them overnight and sub-cultured at 1% into iron-deficient MOPS minimal media, with shaking (200 rpm) at 37° C. for 10-12 h, until late exponential phase. After collecting the cells by centrifugation at 7500×g for 15 min, and washing with 50 mM NaHPO4, pH 6.7, we labeled the Cys-mutant LGP with 5 μM FM in 50 mM NaHPO4, pH 6.7 for 15 min at 37° C. FM. We terminated the labeling reactions with 100 μM β-mercaptoethanol. After collecting the fluoresceinated cells by centrifugation at 7500×g for 15 min, and washing with 50 mM NaHPO4, pH 6.7, we re-suspended them in PBS plus 0.2% glucose. We either immediately used the labeled cells in spectroscopic experiments, or rested them on ice (up to 24 h), or added glycerol to 15% and stored them (indefinitely) as 1 mL aliquots at −70° C. In the latter case, after thawing the labeled cells we pelleted them by centrifugation in a microfuge, washed them once with and re-suspended them in PBS containing 0.2% glucose. Lastly, for evaluation of protein expression or the extent of FM-labeling we solubilized aliquots of the cell suspensions with sample buffer, and subjected them to SDS-PAGE. After electrophoresis, we first visualized the fluorescence labeling on a Typhoon 8600 Biomolecular Scanner (GE/Amersham), and then stained the gels with Coomassie blue R (153).
(§4) Fluorescence spectroscopic binding determinations. We observed fluorophore-labeled cells in an SLM AMINCO 8100 fluorescence spectrometer, upgraded with an OLIS operating system and software (OLIS SpectralWorks, OLIS Inc., Bogart, GA), to control its shutters, polarizers and data collection. We also utilized an OLIS Clarity fluorescence spectrometer for fluorescence assays. For binding determinations we deposited 2.5×10^7 labeled cells in a quartz cuvette (final volume, 2 mL) with stirring at 37° C., measured the initial fluorescence (F0), and then added increasing concentrations of an iron complex while monitoring the quenching of fluorescence emissions (F) at 520 nm. We performed each measurement in triplicate and calculated the mean value of F/F0 at each ligand concentration. We plotted 1−F/F0 vs [ligand] and analyzed the data by the 1-site binding model of Grafit 6.0.12 (Erithacus Ltd. West Sussex, UK), that fits data to a single site saturation curve, where the amount of ligand bound is plotted as a function of the amount free: […]
(§5) Table 1 lists KD values from analysis of fluorescence quenching with ferric or apo (parenthetic values) siderophores or porphyrins. […]

AbaBauA = AbaBauA (Acinetobacter baumannii, UniProt Q76HJ9, S407C); assay: Fluorescence quenching binding to AbaBauA-FM sensor
Protocol: as §1, §2

[1] = target: T2, HsaSCN (human siderocalin) (Homo sapiens, UniProt P80188, Q148C); assay: Fluorescence quenching binding to purified HsaSCN-FM sensor; conditions: read-out: KD, HsaSCN-FM
T2 construct: adds a 6H-tag at either the N- or C-termini of the mature proteins; 6-His (N); made in house; host or cells: E. coli BL21 (pET28), IPTG-induced; purified on Talon Superflow
T2 sequence (P80188 21-198 Q148C): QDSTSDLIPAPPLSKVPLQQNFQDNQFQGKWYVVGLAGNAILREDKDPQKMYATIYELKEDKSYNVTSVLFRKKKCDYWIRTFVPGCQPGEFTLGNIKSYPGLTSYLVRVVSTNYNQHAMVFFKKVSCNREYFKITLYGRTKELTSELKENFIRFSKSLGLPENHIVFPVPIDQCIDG

KpnIroN = KpnIroN (Klebsiella pneumoniae, UniProt A0ACD7U953, T234C); assay: Fluorescence quenching binding to KpnIroN-FM sensor; conditions: read-out: Affinity (KD) of sensor KpnIroN; ferric complexes; Cys residue T210C, FM-labeled; NB = no binding
Protocol: as §1, §2

AbaPirA = target: T3, AbaPirA (Acinetobacter baumannii, UniProt D0C8V9); conditions: read-out: Affinity (KD) of sensor AbaPirA; ferric complexes; Cys residue S328C, FM-labeled; NB = no binding
T3 construct: fused on or other part: EcoFepA signal peptide in place of its own (cleaved on export); fluorescein maleimide on the engineered Cys
Protocol: For modifications with maleimide fluorophores, we inoculated E. coli strains OKN3, OKN13, OKN359 or OKN1359, harboring plasmids that encoded a Cys mutant LGP, from frozen stocks into LB, grew them overnight and sub-cultured at 1% into iron-deficient MOPS minimal media, with shaking (200 rpm) at 37° C. for 10-12 h, until late exponential phase. After collecting the cells by centrifugation at 7500×g for 15 min, and washing with 50 mM NaHPO4, pH 6.7, we labeled the Cys-mutant LGP with 5 μM FM in 50 mM NaHPO4, pH 6.7 for 15 min at 37° C. […] We terminated the labeling reactions with 100 μM β-mercaptoethanol. […]
We also utilized an OLIS Clarity fluorescence spectrometer for fluorescence assays. […] We performed each measurement in triplicate and calculated the mean value of F/F0 at each ligand concentration. We plotted 1−F/F0 vs [ligand] and analyzed the data by the 1-site binding model of Grafit 6.0.12 (Erithacus Ltd. West Sussex, UK), that fits data to a single site saturation curve, where the amount of ligand bound is plotted as a function of the amount free:
For each determination, we measured the extent of fluorescence quenching of an FLGP, when exposed to sequentially increasing concentrations of the listed metal complexes, as plotted in FIGS. 2-4. […]

EcoFiu = target: T4, EcoFiu (Escherichia coli, UniProt P75780, A694C); assay: biochemical; assay type: binding
T4 construct: expressed in transfected cells; host or cells: E. coli OKN3/OKN13/OKN359/OKN1359 carrying a pITS23 derivative
T4 sequence (P75780 32-760 A694C): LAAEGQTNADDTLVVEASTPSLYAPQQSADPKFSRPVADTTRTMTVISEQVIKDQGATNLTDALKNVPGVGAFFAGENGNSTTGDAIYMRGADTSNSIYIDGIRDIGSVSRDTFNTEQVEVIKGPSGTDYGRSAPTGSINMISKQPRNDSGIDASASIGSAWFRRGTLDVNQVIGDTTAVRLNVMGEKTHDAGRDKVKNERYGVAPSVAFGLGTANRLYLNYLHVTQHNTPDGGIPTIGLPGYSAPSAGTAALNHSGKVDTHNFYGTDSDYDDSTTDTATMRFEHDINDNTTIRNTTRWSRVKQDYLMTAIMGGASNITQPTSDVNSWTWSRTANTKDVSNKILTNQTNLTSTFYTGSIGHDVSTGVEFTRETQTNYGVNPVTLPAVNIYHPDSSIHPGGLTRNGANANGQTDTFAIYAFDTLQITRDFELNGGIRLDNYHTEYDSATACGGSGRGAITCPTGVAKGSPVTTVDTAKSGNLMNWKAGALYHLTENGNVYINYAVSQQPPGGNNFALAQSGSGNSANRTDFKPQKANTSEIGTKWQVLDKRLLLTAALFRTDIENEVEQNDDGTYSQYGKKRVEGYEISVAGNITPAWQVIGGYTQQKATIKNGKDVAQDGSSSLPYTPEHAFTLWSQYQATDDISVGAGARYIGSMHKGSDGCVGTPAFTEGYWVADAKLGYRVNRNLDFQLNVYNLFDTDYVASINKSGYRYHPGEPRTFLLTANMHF
Protocol: as §3
(§6) Fluorescence spectroscopic binding determinations. We observed fluorophore-labeled cells in an SLM AMINCO 8100 fluorescence spectrometer, upgraded with an OLIS operating system and software (OLIS SpectralWorks, OLIS Inc., Bogart, GA), to control its shutters, polarizers and data collection. We also utilized an OLIS Clarity fluorescence spectrometer for fluorescence assays. For binding determinations we deposited 2.5×10^7 labeled cells in a quartz cuvette (final volume, 2 mL) with stirring at 37° C., measured the initial fluorescence (F0), and then added increasing concentrations of an iron complex while monitoring the quenching of fluorescence emissions (F) at 520 nm. We performed each measurement in triplicate and calculated the mean value of F/F0 at each ligand concentration. We plotted 1−F/F0 vs [ligand] and analyzed the data by the 1-site binding model of Grafit 6.0.12 (Erithacus Ltd. West Sussex, UK), that fits data to a single site saturation curve, where the amount of ligand bound is plotted as a function of the amount free:
(§7) These plots yielded KD values for each of the receptor-ligand interactions, with associated standard errors.
(§8) Table 1 lists KD values from analysis of fluorescence quenching with ferric or apo (parenthetic values) siderophores or porphyrins. For each determination, we measured the extent of fluorescence quenching of an FLGP, when exposed to sequentially increasing concentrations of the listed metal complexes, as plotted in FIGS. 2-4. We performed each experiment 2 or 3 times. The tabulated KD values are from single, representative experiments, in which we collected each data point in triplicate, plotted F/F0 vs [ligand] for each quenching titration, and fitted the curves to a single site binding model using Grafit 6.012 (Erithacus Ltd, […], UK).

EcoCir = target: T5, EcoCir (Escherichia coli, UniProt P17315, G512C); assay: biochemical; assay type: binding
T5 construct: expressed in transfected cells; host or cells: E. coli OKN3/OKN13/OKN359/OKN1359 carrying a pITS23 derivative
T5 sequence (P17315 26-663 G512C): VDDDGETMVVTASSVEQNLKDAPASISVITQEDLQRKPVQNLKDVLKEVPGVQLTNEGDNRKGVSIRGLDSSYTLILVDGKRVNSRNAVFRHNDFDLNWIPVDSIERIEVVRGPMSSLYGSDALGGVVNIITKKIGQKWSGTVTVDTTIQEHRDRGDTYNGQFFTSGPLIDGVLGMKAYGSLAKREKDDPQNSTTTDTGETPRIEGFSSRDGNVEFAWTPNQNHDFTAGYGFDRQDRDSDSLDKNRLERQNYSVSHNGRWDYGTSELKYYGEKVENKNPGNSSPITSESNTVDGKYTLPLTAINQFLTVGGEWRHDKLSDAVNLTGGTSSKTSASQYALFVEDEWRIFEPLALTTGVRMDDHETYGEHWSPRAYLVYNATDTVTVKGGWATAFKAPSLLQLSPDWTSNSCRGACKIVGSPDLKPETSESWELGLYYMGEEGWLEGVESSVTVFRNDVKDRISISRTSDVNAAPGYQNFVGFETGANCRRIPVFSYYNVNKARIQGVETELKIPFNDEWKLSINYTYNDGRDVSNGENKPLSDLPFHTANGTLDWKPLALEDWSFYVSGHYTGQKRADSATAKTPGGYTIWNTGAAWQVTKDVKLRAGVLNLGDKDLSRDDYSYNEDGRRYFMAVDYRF
Protocol: as §3, §6, §7, §8

AbaPiuA = AbaPiuA (Acinetobacter baumannii, UniProt D0CAH3, S724C); assay: Fluorescence quenching binding to AbaPiuA-FM sensor
Protocol: as §3, with “In the latter case, after thawing the labeled cells we pelleted them by centrifugation in a microfuge, washed them once with and re-suspended them in PBS containing 0.2% glucose. Lastly, for evaluation of protein expression or the extent of FM-labeling we solubilized aliquots of the cell suspensions with sample buffer, and subjected them to SDS-PAGE.” left out
as §4, with “concentration.” for “concentration. We plotted 1−F/F0 vs [ligand] and analyzed the data by the 1-site binding model of Grafit 6.0.12 (Erithacus Ltd. West Sussex, UK), that fits data to a single site saturation curve, where the amount of ligand bound is plotted as a function of the amount free:”
as §5

**Q.** Which results are given for `O=C(N[C@H]1COC(=O)[C@@H](NC(=O)c2cccc([O-])c2[O-])COC(=O)[C@@H](NC(=O)c2cccc([O-])c2[O-])COC1=O)c1cccc([O-])c1[O-].[Fe+3]` [FeEnt, ferric enterobactin]?
**A.** Binding by PaeFpvA (PaeFpvA): weakly bound; pKd (KpnFepA2380): 4.89; Transport rate (CRE/ESKAPE pathogens; iron deficient Gram (−) bacteria with maximally expressed chromosomal FepA): ~50 pMol/10^9 cells/min

**Q.** How did the pKd (EcoFhuA) turn out when `CC(=O)N(O)CCC[C@@H]1NC(=O)CNC(=O)CNC(=O)CNC(=O)[C@H](CCCN(O)C(C)=O)NC(=O)[C@H](CCCN(O)C(C)=O)NC1=O` [apoFc] (cyclo(GGG[Orn(N5-OH,N5-Ac)][Orn(N5-OH,N5-Ac)][Orn(N5-OH,N5-Ac)])) was run?
**A.** 6.70

**Q.** Which results are given for `O=C([C@@H]1CSC(c2cccc(O)c2O)=N1)N(O)CCc1c[nH]cn1.[Fe+3]` [FeAgn]?
**A.** pKd (AbaBauA; read-out: Affinity (KD) of sensor AbaBauA, ferric complexes, Cys residue S385C, FM-labeled, NB = no binding): 5.96; pKd [1]: 6.80

**Q.** For `CC(=O)N([O-])CCCC[C@H](NC(=O)CC(O)(CC(=O)N[C@@H](CCCCN([O-])C(C)=O)C(=O)O)C(=O)[O-])C(=O)O.[Fe+3]` [FeAbn, ferric aerobactin], which “TonB-dependent uptake by test strains” value (CRE/ESKAPE pathogens) is on record?
**A.** uptake of FeAbn by all the strains except A. baumannii

**Q.** Which results are given for `CC(C)(O/N=C(\C(=O)N[C@@H]1C(=O)N2C(C(=O)[O-])=C(C[N+]3(CCNC(=O)c4ccc([O-])c([O-])c4Cl)CCCC3)CS[C@H]12)c1csc(N)n1)C(=O)[O-].[Fe+3]` [FeFDC]?
**A.** pKd (KpnIroN): 6.24; pKd (AbaPirA): 5.32; pKd (AbaBauA): 3.74; pKd (EcoFiu): 6.27; pKd (EcoCir): 7.22; pKd (AbaPiuA): 4.24

**Q.** What does the source list for `O=C(O)c1cccc(O)c1O.[Fe+3]` [FeDHB]?
**A.** Binding by PaeFpvA (PaeFpvA): weakly bound; pKd (KpnFepA2380): 4.66; Binding by EcoFiu (EcoFiu): did not bind

**Q.** How did the “TonB-dependent uptake by test strains” value (CRE/ESKAPE pathogens) turn out when `C[C@@H](O)[C@@H]1NC(=O)[C@H](CCCN([O-])C=O)NC(=O)[C@@H](NC(=O)[C@H](CCCN([O-])C=O)NC(=O)[C@@H](CO)NC(=O)[C@H](CCCNC(=N)N)NC(=O)[C@@H](CO)NC(=O)[C@@H]2CCN=C3C(NC(=O)CCC(=O)O)=Cc4cc(O)c([O-])cc4N32)CCCCNC(=O)[C@H]([C@@H](C)O)NC1=O.[Fe+3]` [FePvd] (Suc-[X1][dS]R[dS][X2]K[X2]TT; lactam 6-C) was run?
**A.** exclusive transport of FePvd by P. aeruginosa
